Experimental data from patent publication US6835755B1, “Naphthoquinone derivatives and their use in the treatment and control of tuberculosis” (priority 1999, dated 2004).
Values after ≈ are worked out from the molar mass of the structure shown.

Tested on: resistant strains of Mycobacterium tuberculosis
Experiment: microbe, parasite or virus in culture
Type: cell-based
Conditions: for ΔGI values of plant extracts: at MIC, mean ± s.d.

| Compound | ΔGI values of plant extracts (Two drug (isoniazid and rifampicin) resistant strain CCKO28469V) | MIC (Minimal inhibitory concentration) (Two drug (isoniazid and rifampicin) resistant strain CCKO28469V, radiometric method) [µg/mL] | ΔGI values of plant extracts (2 drug resistant strain (res. to isoniazid and rifampicin)) [mg/mL] | ΔGI values of plant extracts (3 drug resistant strain (res. to streptomycin, isoniazid and ethambutol)) [mg/mL] | MIC (3 drug resistant strain (res. to streptomycin, isoniazid and ethambutol), radiometric method) [µg/mL] | ΔGI values of plant extracts (4 drug resistant strain (res. to streptomycin, isoniazid, rifampicin and ethambutol)) [mg/mL] | MIC (4 drug resistant strain (res. to streptomycin, isoniazid, rifampicin and ethambutol), radiometric method) [µg/mL] | ΔGI values of plant extracts (5 drug resistant strain (res to isoniazid, streptomycin, rifampicin, thiacetazone and cyclocerine)) [mg/mL] | MIC (5 drug resistant strain (res to isoniazid, streptomycin, rifampicin, thiacetazone and cyclocerine), radiometric method) [µg/mL] | ΔGI values of plant extracts (6 drug resistant strain (res. to isoniazid, rifampicin, ethionamide, terizidone, thiacetazone and ofloxacin)) [mg/mL] | MIC (6 drug resistant strain (res. to isoniazid, rifampicin, ethionamide, terizidone, thiacetazone and ofloxacin), radiometric method) [µg/mL] | ΔGI values of plant extracts (7 drug resistant strain (res to isoniazid, streptomycin, ethambutol, kanamycin, rifampicin, and ethionamide)) [mg/mL] | MIC (7 drug resistant strain (res to isoniazid, streptomycin, ethambutol, kanamycin, rifampicin, and ethionamide), radiometric method) [µg/mL] | MIC (Mycobacterium tuberculosis) [µg/mL] |
| --- | --- | --- | --- | --- | --- | --- | --- | --- | --- | --- | --- | --- | --- | --- |
| Cc1cc(O)c2c(c1)C(=O)C=CC2=O [7-methyljuglone, 5-hydroxy-7-methyl-1,4-naphtoquinone] | 0 ± 0 | 50 (≈ 266 µM) |  |  |  |  |  |  |  |  |  |  |  |  |
| Cc1cc(O)c2c(c1)C(=O)C(c1c(C)cc3c(c1O)C(=O)C=CC3=O)=CC2=O [diospyrin, 5,5′ dihydroxy 7,7′ binaphthoquinone] |  |  | 3.5 | 4 ± 2.12 | 100 (≈ 267 µM) | 5 ± 2.82 | 100 (≈ 267 µM) | 10 ± 1.41 | 100 (≈ 267 µM) | 9 ± 2.82 | 100 (≈ 267 µM) | 13.5 ± 3.2 | 100 (≈ 267 µM) | 100 (≈ 267 µM) |
